For 15 compounds, IC50 results are on record in US11091478B2 (Fochon Pharmaceuticals, Ltd., priority 2017, dated 2021).

The test system of one assay is DOHH2 cells. In words: Cell proliferation assay (MTS), DOHH2 cells, 120 h. Type of assay: cell-based. The method, boiled down:
(§1)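 Cells in RPMI-1640 with 10% FBS were seeded at 5000/well, left overnight at 37° C., 5% CO2, then exposed to compound at 10000 down to 1.5 nM (nine concentrations) for 72 h (RS4;11) or 120 h (DOHH2). Viability was read by MTS, 2 h, absorbance at 490/650 nm; IC50 calculated.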

The subject of another assay is RS4;11 cells. In words: Cell proliferation assay (MTS), RS4;11 cells, 72 h. The settings on record: Homo sapiens, RS4-11, 72 h. Type of assay: cell-based. The gist of the method:
as §1

Like-named read-outs stand apart in the source and are kept apart here.

Broadly, the IC50 is the midpoint of a concentration-inhibition curve. Read a low IC50 as higher potency. For the compound `CC1(C)CCC(CN2CCN(c3ccc(C(=O)NS(=O)(=O)c4cc5c(c([N+](=O)[O-])c4)N[C@@H](CCO)C5)c(Oc4cnc5[nH]ccc5c4)c3)CC2)=C(c2ccc(Cl)cc2)C1` [Example 1-19, (R)-2-((1H-pyrrolo[2,3-b]pyridin-5-yl)oxy)-4-(4-((4′-chloro-5,5-dimethyl-3,4,5,6-tetra-hydro-[1,1′-biphenyl]-2-yl)methyl)piperazin-1-yl)-N-((2-(2-hydroxyethyl)-7-nitro-indolin-5-yl)sulfonyl)benzamide], the IC50 with DOHH2 cells (Homo sapiens, DOHH-2, 120 h) stood at 96 nM; in the assay with RS4;11 cells it was 93 nM.

Take `CC1(C)CCC(CN2CCN(c3ccc(C(=O)NS(=O)(=O)c4cc5c(c([N+](=O)[O-])c4)N[C@@H](Cc4ccccn4)CO5)c(Oc4cnc5[nH]ccc5c4)c3)CC2)=C(c2ccc(Cl)cc2)C1` [Example 2-133, (S)-2-((1H-pyrrolo[2,3-b]pyridin-5-yl)oxy)-4-(4-((4′-chloro-5,5-dimethyl-3,4,5,6-tetra-hydro-[1,1′-biphenyl]-2-yl)methyl)piperazin-1-yl)-N-((5-nitro-3-(pyridin-2-ylmethyl)-3,4-dihydro-2H-benzo[b][1,4]oxazin-7-yl)sulfonyl)benzamide]: the IC50 stood at 8 nM with DOHH2 cells (Homo sapiens, DOHH-2, 120 h) and 1 nM in the assay on RS4;11 cells.

As for `CC1(C)CCC(c2ccc(Cl)cc2)=C(CN2CCN(c3ccc(C(=O)NS(=O)(=O)c4cc5c(c([N+](=O)[O-])c4)N[C@@H](C4CCOCC4)CO5)c(Oc4cnc5[nH]ccc5c4)c3)CC2)C1` [Example 2-212, (S)-2-((1H-pyrrolo[2,3-b]pyridin-5-yl)oxy)-4-(4-((4′-chloro-4,4-dimethyl-3,4,5,6-tetra-hydro-[1,1′-biphenyl]-2-yl)methyl)piperazin-1-yl)-N-((5-nitro-3-(tetrahydro-2H-pyran-4-yl)-3,4-dihydro-2H-benzo[b][1,4]oxazin-7-yl)sulfonyl)benzamide], the IC50 was found to be 27 nM with DOHH2 cells (Homo sapiens, DOHH-2, 120 h) and 8 nM in the assay with RS4;11 cells.

As to `COC(=O)N1CCC([C@H]2COc3cc(S(=O)(=O)NC(=O)c4ccc(N5CCN(CC6=C(c7ccc(Cl)cc7)CC(C)(C)CC6)CC5)cc4Oc4cnc5[nH]ccc5c4)cc([N+](=O)[O-])c3N2)CC1` [Example 2-230, methyl (S)-4-(7-(N-(2-((1H-pyrrolo[2,3-b]pyridin-5-yl)oxy)-4-(4-((4′-chloro-5,5-dimethyl-3,4,5,6-tetrahydro-[1,1′-biphenyl]-2-yl)methyl)piperazin-1-yl)benzoyl)sulfamoyl)-5-nitro-3,4-dihydro-2H-benzo[b][1,4]oxazin-3-yl) piperidine-1-carboxylate], the IC50 turned out to be 2 nM in the assay on DOHH2 cells (Homo sapiens, DOHH-2, 120 h) and 1 nM in the assay with RS4;11 cells.

Consider `CC1(C)CCC(CN2CCN(c3ccc(C(=O)NS(=O)(=O)c4cc5c(c([N+](=O)[O-])c4)N[C@H](Cc4ccc(Cl)cc4)CO5)c(Oc4cnc5[nH]ccc5c4)c3)CC2)=C(c2ccc(Cl)cc2)C1` [Example 2-160, (R)-2-((1H-pyrrolo[2,3-b]pyridin-5-yl)oxy)-4-(4-((4′-chloro-5,5-dimethyl-3,4,5,6-tetra-hydro-[1,1′-biphenyl]-2-yl)methyl)piperazin-yl)-N-((3-(4-chlorobenzyl)-5-nitro-3,4-dihydro-2H-benzo[b][1,4]oxazin-7-yl)sulfo-nyl)benzamide], for which the IC50 with DOHH2 cells (Homo sapiens, DOHH-2, 120 h) was 168 nM; in the assay with RS4;11 cells, 95 nM.

In the case of `CC1(C)CCC(CN2CCN(c3ccc(C(=O)NS(=O)(=O)c4cc5c(c([N+](=O)[O-])c4)N[C@H](CCO)CS5)c(Oc4cnc5[nH]ccc5c4)c3)CC2)=C(c2ccc(Cl)cc2)C1` [Example 3-11, (R)-2-((1H-pyrrolo[2,3-b]pyridin-5-yl)oxy)-4-(4-((4′-chloro-5,5-dimethyl-3,4,5,6-tetra-hydro-[1,1′-biphenyl]-2-yl)methyl)piperazin-1-yl)-N-((3-(2-hydroxyethyl)-5-nitro-3,4-dihydro-2H-benzo[b][1,4]thiazin-7-yl)sulfonyl) benzamide], the IC50 in the assay with DOHH2 cells (Homo sapiens, DOHH-2, 120 h) is 16 nM; in the assay with RS4;11 cells it was 11 nM.

For the compound `CC1(C)CCC(CN2CCN(c3ccc(C(=O)NS(=O)(=O)c4cc5c(c([N+](=O)[O-])c4)N[C@@H](CC4CCC(O)CC4)CO5)c(Oc4cnc5[nH]ccc5c4)c3)CC2)=C(c2ccc(Cl)cc2)C1` (single isomer, unassigned) [Example 2-244A], the IC50 is 7 nM in the assay with DOHH2 cells and 3 nM in the assay with RS4;11 cells.

Regarding `COC(=O)NC[C@@H]1COc2cc(S(=O)(=O)NC(=O)c3ccc(N4CCN(CC5=C(c6ccc(Cl)cc6)CC(C)(C)CC5)CC4)cc3Oc3cnc4[nH]ccc4c3)cc([N+](=O)[O-])c2N1` [Example 2-134, methyl (R)-((7-(N-(2-((1H-pyrrolo[2,3-b]pyridin-5-yl)oxy)-4-(4-((4′-chloro-5,5-dimethyl-3,4,5,6-tetrahydro-[1,1′-biphenyl]-2-yl)methyl)piperazin-1-yl)benzoyl)sulfamoyl)-5-nitro-3,4-dihydro-2H-benzo[b][1,4]oxazin-3-yl)methyl)carbamate], the IC50 with DOHH2 cells (Homo sapiens, DOHH-2, 120 h) was found to be 39 nM; in the assay on RS4;11 cells, 2 nM.

Consider `CC1(C)CCC(CN2CCN(c3ccc(C(=O)NS(=O)(=O)c4cc5c(c([N+](=O)[O-])c4)N[C@H](CCN4CC(O)C4)CO5)c(Oc4cnc5[nH]ccc5c4)c3)CC2)=C(c2ccc(Cl)cc2)C1` [Example 2-34, (R)-2-((1H-pyrrolo[2,3-b]pyridin-5-yl)oxy)-4-(4-((4′-chloro-5,5-dimethyl-3,4,5,6-tetra-hydro-[1,1′-biphenyl]-2-yl)methyl)piperazin-1-yl)-N-((3-(2-(3-hydroxyazetidin-1-yl)eth-yl)-5-nitro-3,4-dihydro-2H-benzo[b][1,4]oxazin-7-yl)sulfonyl)benzamide], for which the IC50 is 41 nM in the assay with DOHH2 cells (Homo sapiens, DOHH-2, 120 h) and 14 nM in the assay on RS4;11 cells.

As to `CCC(=O)N1CCN(C[C@@H]2COc3cc(S(=O)(=O)NC(=O)c4ccc(N5CCN(CC6=C(c7ccc(Cl)cc7)CC(C)(C)CC6)CC5)cc4Oc4cnc5[nH]ccc5c4)cc([N+](=O)[O-])c3N2)CC1` [Example 2-92, (R)-2-((1H-pyrrolo[2,3-b]pyridin-5-yl)oxy)-4-(4-((4′-chloro-5,5-dimethyl-3,4,5,6-tetra-hydro-[1,1′-biphenyl]-2-yl)methyl)piperazin-1-yl)-N-((5-nitro-3-((4-propionylpiperazin-1-yl)methyl)-3,4-dihydro-2H-benzo[b] [1,4]oxazin-7-yl)sulfonyl)benzamide], the IC50 is 79 nM with DOHH2 cells (Homo sapiens, DOHH-2, 120 h) and 5 nM in the assay on RS4;11 cells.

Consider `CC1(C)CCC(CN2CCN(c3ccc(C(=O)NS(=O)(=O)c4cc5c(c([N+](=O)[O-])c4)N[C@H](CN4C[C@H]6C[C@@H]4CO6)CO5)c(Oc4cnc5[nH]ccc5c4)c3)CC2)=C(c2ccc(Cl)cc2)C1` [Example 2-83, 2-((1H-pyrrolo[2,3-b]pyridin-5-yl)oxy)-N-(((R)-3-(((1R,4R)-2-oxa-5-azabicyclo[2.2.1]heptan-5-yl)methyl)-5-nitro-3,4-dihydro-2H-benzo[b][1,4]oxazin-7-yl)sulfonyl)-4-(4-((4′-chloro-5,5-dimethyl-3,4,5,6-tetrahydro-[1,1′-biphenyl]-2-yl)methyl)piperazin-1-yl) benzamide], for which the IC50 in the assay on DOHH2 cells (Homo sapiens, DOHH-2, 120 h) amounted to 13 nM; in the assay on RS4;11 cells, 1 nM.

Consider `C[C@@H]1CN(CC[C@@H]2COc3cc(S(=O)(=O)NC(=O)c4ccc(N5CCN(CC6=C(c7ccc(Cl)cc7)CC(C)(C)CC6)CC5)cc4Oc4cnc5[nH]ccc5c4)cc([N+](=O)[O-])c3N2)CCO1` [Example 2-42, 2-((1H-pyrrolo[2,3-b]pyridin-5-yl)oxy)-4-(4-((4′-chloro-5,5-dimethyl-3,4,5,6-tetrahydro-[1,1′-biphenyl]-2-yl)methyl)piperazin-1-yl)-N-(((R)-3-(2-((R)-2-methylmorpholino)ethyl)-5-nitro-3,4-dihydro-2H-benzo[b][1,4]oxa-zin-7-yl)sulfonyl)benzamide], for which the IC50 in the assay with DOHH2 cells (Homo sapiens, DOHH-2, 120 h) was 38 nM; in the assay on RS4;11 cells it was 6 nM.

As to `C[C@H]1CN(CC[C@@H]2COc3cc(S(=O)(=O)NC(=O)c4ccc(N5CCN(CC6=C(c7ccc(Cl)cc7)CC(C)(C)CC6)CC5)cc4Oc4cnc5[nH]ccc5c4)cc([N+](=O)[O-])c3N2)CCO1` [Example 2-41, 2-((1H-pyrrolo[2,3-b]pyridin-5-yl)oxy)-4-(4-((4′-chloro-5,5-dimethyl-3,4,5,6-tetrahydro-[1,1′-biphenyl]-2-yl)methyl)piperazin-1-yl)-N-(((R)-3-(2-((S)-2-methylmorpholino)ethyl)-5-nitro-3,4-dihydro-2H-benzo[b][1,4]oxazin-7-yl)sulfonyl)benzamide], the IC50 in the assay on DOHH2 cells (Homo sapiens, DOHH-2, 120 h) stood at 23 nM; in the assay on RS4;11 cells, 2 nM.

On to `CC1(C)CCC(CN2CCN(c3ccc(C(=O)NS(=O)(=O)c4cc5c(c([N+](=O)[O-])c4)N[C@H](CCN4CCN(C6COC6)CC4)CO5)c(Oc4cnc5[nH]ccc5c4)c3)CC2)=C(c2ccc(Cl)cc2)C1` [Example 2-38, (R)-2-((1H-pyrrolo[2,3-b]pyridin-5-yl)oxy)-4-(4-((4′-chloro-5,5-dimethyl-3,4,5,6-tetra-hydro-[1,1′-biphenyl]-2-yl)methyl)piperazin-1-yl)-N-((5-nitro-3-(2-(4-(oxetan-3-yl)piperazin-1-yl)ethyl)-3,4-dihydro-2H-benzo [b][1,4]oxazin-7-yl)sulfonyl)benzamide], for which the IC50 in the assay with DOHH2 cells (Homo sapiens, DOHH-2, 120 h) is 27 nM; in the assay on RS4;11 cells, 1 nM.

Regarding `CC1(C)CCC(CN2CCN(c3ccc(C(=O)NS(=O)(=O)c4cc5c(c([N+](=O)[O-])c4)N[C@H](CO[C@H]4CC[C@H](O)CC4)CO5)c(Oc4cnc5[nH]ccc5c4)c3)CC2)=C(c2ccc(Cl)cc2)C1` [Example 2-250, 2-((1H-pyrrolo[2,3-b]pyridin-5-yl)oxy)-4-(4-((4′-chloro-5,5-dimethyl-3,4,5,6-tetrahydro-[1,1′-biphenyl]-2-yl)methyl)piperazin-1-yl)-N-(((R)-3-((((1r,4R)-4-hydroxycyclo-hexyl)oxy)methyl)-5-nitro-3,4-dihydro-2H-benzo[b][1,4]oxazin-7-yl)sulfonyl)benzamide], the IC50 in the assay with DOHH2 cells (Homo sapiens, DOHH-2, 120 h) amounted to 7 nM; with RS4;11 cells, 1 nM.
